Test results: BindingDB's records for doi:10.1021/jm9011609 (University of Manchester, 2009)

Target: NAD(P)H dehydrogenase [quinone] 1 (Homo sapiens, UniProt P15559)
Test: Inhibition of NQO1 (With 2 uM BSA)
Settings: pH 7.5
Method: On some occasions, potential inhibitors were dissolved in 0.13 M NaOH. Reactions were carried out at 25 deg C and cytochrome c reduction was monitored at 550nm in a BeckmanDU650 spectrophotometer.

Sequence of NAD(P)H dehydrogenase [quinone] 1 (P15559 whole entry): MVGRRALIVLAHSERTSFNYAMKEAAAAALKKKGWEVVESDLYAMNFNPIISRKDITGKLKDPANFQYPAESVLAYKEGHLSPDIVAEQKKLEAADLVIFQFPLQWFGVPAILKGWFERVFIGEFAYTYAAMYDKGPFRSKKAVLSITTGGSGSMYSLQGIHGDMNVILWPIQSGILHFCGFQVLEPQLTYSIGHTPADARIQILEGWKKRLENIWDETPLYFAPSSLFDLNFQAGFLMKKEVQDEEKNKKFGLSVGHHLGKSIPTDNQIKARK

Row | Compound | IC50 | IC50 (25 °C)
1 | O=c1oc2c(ccc3ccccc32)c(O)c1Cc1ccccc1 [4-hydroxy-2H-chromen-2-one core, 21] | 35 nM | 880 nM
2 | O=c1oc2ccc3ccccc3c2c(O)c1Cc1ccc2ccccc2c1 [4-hydroxy-2H-chromen-2-one core, 23] | 6 nM | 2370 nM
